These results are taken from patent publication US20250353891A1 (MEDIMMUNE LIMITED, priority 2022, published 2025).

Experiment [1] has as its target human GLP-1 receptor (hGLP-1R) (Homo sapiens, UniProt P43220). The experiment can be described thus: cAMP production (HTRF) in CHO cells expressing hGLP-1R. As to conditions: for pEC50: cAMP in CHO hGLP-1R cells, geometric mean, read-out: hGLP-1R EC50; for % Relative Potency Ratio: % GLP-1R activity relative to GLP-1 / % GlucR activity relative to glucagon. More on the design: expressed in transfected cells. The format is cell-based. An outline of the steps: (§1)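 Read-out: HTRF cAMP (anti-cAMP cryptate donor, cAMP-d2 acceptor in conjugate/lysis buffer), converted to % Delta F and fitted by 4-parameter logistic for EC50. Cell densities were 1×10^5 cells/mL (hGLP-1R) or 2×10^5 cells/mL (hGCGR). Stimulation lasted 30 min at room temperature.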

Experiment [2] has as its target human glucagon receptor (hGCGR) (Homo sapiens, UniProt P47871). The experiment can be described thus: cAMP production (HTRF) in CHO cells expressing hGCGR. More on the design: expressed in transfected cells. The format is cell-based. As to conditions: cAMP in CHO hGCGR cells, geometric mean, read-out: hGluc-R EC50. In a few lines:
as §1
Background: cAMP levels reflect the balance of adenylyl cyclase and phosphodiesterase activity.

Where [3] appears, read: Table 6, peptides modified at position 17.
[4] abbreviates: Table 7, peptides modified at position 20.

pEC50: −log10 of the molar value. Read-outs that look alike come from different tables or passages of the source. Starred links: 1 amine or outer side, 2 acyl side, 3 side chain; linkers in the order of their positions; H or OH if unused. Non-standard residues stand in square brackets, D forms with d. Residues, ends and D or L forms follow the SMILES beside them. Groups on a side chain read outwards from the residue. *: point of attachment. C20 diacid = O=C(O)CCCCCCCCCCCCCCCCCCC(=O)*; C18 diacid = O=C(O)CCCCCCCCCCCCCCCCC(=O)*; γGlu = O=C(O)[C@H](CCC(=O)[*:2])N[*:1]; Stearoyl = CCCCCCCCCCCCCCCCCC(=O)*; αMeF = C[C@](N)(Cc1ccccc1)C(=O)O; PEG2 = NCCOCCOCCC(=O)O; AEEA = NCCOCCOCC(=O)O; Aib = CC(C)(N)C(=O)O

Chain of human glucagon receptor (hGCGR) (P47871 26-477): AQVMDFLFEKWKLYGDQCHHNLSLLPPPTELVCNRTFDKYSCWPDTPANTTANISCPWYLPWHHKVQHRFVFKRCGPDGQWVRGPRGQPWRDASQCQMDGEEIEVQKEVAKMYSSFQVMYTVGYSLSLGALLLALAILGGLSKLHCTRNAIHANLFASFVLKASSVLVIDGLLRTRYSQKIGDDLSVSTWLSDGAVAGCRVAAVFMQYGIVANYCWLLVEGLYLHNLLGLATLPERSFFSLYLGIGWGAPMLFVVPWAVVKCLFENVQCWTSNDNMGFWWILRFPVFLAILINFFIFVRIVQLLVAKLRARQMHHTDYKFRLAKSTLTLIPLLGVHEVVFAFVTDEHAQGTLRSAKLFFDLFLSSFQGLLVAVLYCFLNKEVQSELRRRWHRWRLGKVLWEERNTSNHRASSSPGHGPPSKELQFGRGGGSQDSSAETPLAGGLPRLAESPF
Chain of human GLP-1 receptor (hGLP-1R) (P43220 24-463): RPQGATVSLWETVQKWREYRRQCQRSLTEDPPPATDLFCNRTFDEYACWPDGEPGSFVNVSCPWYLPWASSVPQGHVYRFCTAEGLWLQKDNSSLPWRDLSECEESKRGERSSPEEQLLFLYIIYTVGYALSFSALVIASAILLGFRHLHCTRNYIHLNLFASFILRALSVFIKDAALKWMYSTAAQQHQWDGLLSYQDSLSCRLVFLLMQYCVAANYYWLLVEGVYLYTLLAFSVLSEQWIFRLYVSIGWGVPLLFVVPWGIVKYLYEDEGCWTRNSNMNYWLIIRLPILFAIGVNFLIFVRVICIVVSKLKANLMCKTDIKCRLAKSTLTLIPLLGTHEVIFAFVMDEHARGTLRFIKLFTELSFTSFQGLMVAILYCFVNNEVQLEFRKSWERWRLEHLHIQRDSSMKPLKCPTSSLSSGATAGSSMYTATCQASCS

`CC(C)C[C@H](NC(=O)[C@H](Cc1c[nH]c2ccccc12)NC(=O)[C@H](CCC(N)=O)NC(=O)[C@@H](NC(=O)[C@H](Cc1ccccc1)NC(=O)[C@H](CC(=O)O)NC(=O)[C@H](CCCNC(=N)N)NC(=O)[C@H](C)NC(=O)[C@H](CCCNC(=N)N)NC(=O)[C@H](CCCCNC(=O)CC[C@H](NC(=O)CC[C@H](NC(=O)COCCOCCNC(=O)COCCOCCNC(=O)CC[C@H](NC(=O)CC[C@H](NC(=O)CCCCCCCCCCCCCCCCC(=O)O)C(=O)O)C(=O)O)C(=O)O)C(=O)O)NC(=O)[C@@H](NC(=O)[C@H](CC(=O)O)NC(=O)[C@H](CC(C)C)NC(=O)[C@](C)(Cc1ccccc1)NC(=O)[C@H](CCCCN)NC(=O)[C@H](CO)NC(=O)[C@@H](NC(=O)[C@H](CC(=O)O)NC(=O)[C@H](CO)NC(=O)[C@@H](NC(=O)[C@H](Cc1ccccc1)NC(=O)[C@@H](NC(=O)CNC(=O)[C@H](CCC(N)=O)NC(=O)C(C)(C)NC(=O)[C@@H](N)Cc1c[nH]cn1)[C@@H](C)O)[C@@H](C)O)C(C)C)[C@@H](C)O)C(C)C)C(=O)N[C@@H](CC(C)C)C(=O)N[C@@H](CCC(=O)O)C(=O)NC(C)(C)C(=O)NCC(=O)O` [Peptide 519]: the pEC50 in experiment [1] (setting [3]) was 9.76; in experiment [2] (setting [3]), 9.41. Further, the “% Relative Potency Ratio” value in experiment [1] (Table 6) came out at 4.4.

On to `CC(C)C[C@H](NC(=O)[C@H](Cc1c[nH]c2ccccc12)NC(=O)[C@H](CCCNC(=N)N)NC(=O)[C@@H](NC(=O)[C@H](Cc1ccccc1)NC(=O)[C@H](CC(=O)O)NC(=O)[C@H](CCC(N)=O)NC(=O)[C@H](C)NC(=O)[C@H](CCCNC(=N)N)NC(=O)[C@H](CCCCNC(=O)COCCOCCNC(=O)COCCOCCNC(=O)CC[C@H](NC(=O)CCCCCCCCCCCCCCCCC(=O)O)C(=O)O)NC(=O)[C@H](CO)NC(=O)[C@H](CC(=O)O)NC(=O)[C@H](CC(C)C)NC(=O)[C@](C)(Cc1ccccc1)NC(=O)[C@H](CCCCN)NC(=O)[C@H](CO)NC(=O)[C@@H](NC(=O)[C@H](CC(=O)O)NC(=O)[C@H](CO)NC(=O)[C@@H](NC(=O)[C@H](Cc1ccccc1)NC(=O)[C@@H](NC(=O)CNC(=O)[C@H](CCC(N)=O)NC(=O)C(C)(C)NC(=O)[C@@H](N)Cc1c[nH]cn1)[C@@H](C)O)[C@@H](C)O)C(C)C)C(C)C)C(=O)N[C@@H](CCC(=O)O)C(=O)N[C@@H](C)C(=O)NC(C)(C)C(=O)NCC(N)=O` [Peptide 429] (H-H[Aib]QGTFTSDVSK[αMeF]LDSK([AEEA-AEEA-γGlu-C18 diacid])RAQDFVRWLEA[Aib]G-NH2; N-terminus assumed), for which the pEC50 in experiment [1] (setting [3]) was 10.82; in experiment [2] (setting [3]), 9.84. The “% Relative Potency Ratio” value in experiment [1] (Table 6) was 19.0.

Turning to `CCCCCCCCCCCCCCCCCC(=O)N[C@@H](CCC(=O)N[C@@H](CCC(=O)NCCOCCOCCC(=O)NCCOCCOCCC(=O)NCCCC[C@H](NC(=O)[C@H](CO)NC(=O)[C@H](CC(=O)O)NC(=O)[C@H](CC(C)C)NC(=O)[C@](C)(Cc1ccccc1)NC(=O)[C@H](CCCCN)NC(=O)[C@H](CO)NC(=O)[C@@H](NC(=O)[C@H](CC(=O)O)NC(=O)[C@H](CO)NC(=O)[C@@H](NC(=O)[C@](C)(Cc1ccccc1)NC(=O)[C@H](CO)NC(=O)CNC(=O)[C@H](CCC(N)=O)NC(=O)C(C)(C)NC(=O)[C@@H](N)Cc1c[nH]cn1)[C@@H](C)O)C(C)C)C(=O)N[C@@H](C)C(=O)N[C@@H](C)C(=O)N[C@@H](CCC(N)=O)C(=O)N[C@@H](CC(=O)O)C(=O)N[C@@](C)(Cc1ccccc1)C(=O)N[C@H](C(=O)N[C@@H](CCC(N)=O)C(=O)NC(C)(C)C(=O)N[C@H](C(=O)N[C@H](C(=O)N[C@@H](CCC(=O)O)C(=O)NCC(=O)NCC(N)=O)C(C)C)C(C)C)C(C)C)C(=O)O)C(=O)O` [Peptide 76] (H-H[Aib]QGS[αMeF]TSDVSK[αMeF]LDSK([PEG2-PEG2-γGlu-γGlu-Stearoyl])AAQD[αMeF]VQ[Aib]VVEGG-NH2; N-terminus assumed), the pEC50 in experiment [1] (setting [3]) was 11.75; in experiment [2] (setting [3]), 9.47. Besides, in experiment [1] (Table 6), the “% Relative Potency Ratio” value is 378.6.

With `CC(C)C[C@H](NC(=O)[C@H](Cc1c[nH]c2ccccc12)NC(=O)[C@H](C)NC(=O)[C@@H](NC(=O)[C@H](Cc1ccccc1)NC(=O)[C@H](CC(=O)O)NC(=O)[C@H](CCCNC(=N)N)NC(=O)[C@H](C)NC(=O)[C@H](CCCNC(=N)N)NC(=O)[C@H](CCCCNC(=O)COCCOCCNC(=O)COCCOCCNC(=O)CC[C@H](NC(=O)CCCCCCCCCCCCCCCCC(=O)O)C(=O)O)NC(=O)[C@H](CO)NC(=O)[C@H](CC(=O)O)NC(=O)[C@H](CC(C)C)NC(=O)[C@](C)(Cc1ccccc1)NC(=O)[C@H](CCCCN)NC(=O)[C@H](CO)NC(=O)[C@@H](NC(=O)[C@H](CC(=O)O)NC(=O)[C@H](CO)NC(=O)[C@@H](NC(=O)[C@H](Cc1ccccc1)NC(=O)[C@@H](NC(=O)CNC(=O)[C@H](CCC(N)=O)NC(=O)C(C)(C)NC(=O)[C@@H](N)Cc1c[nH]cn1)[C@@H](C)O)[C@@H](C)O)C(C)C)C(C)C)C(=O)N[C@@H](CC(C)C)C(=O)NC(C)(C)C(=O)N[C@H](C(=O)N[C@@H](CCC(=O)O)C(=O)O)[C@@H](C)O` [Peptide 167] (H-H[Aib]QGTFTSDVSK[αMeF]LDSK([AEEA-AEEA-γGlu-C18 diacid])RARDFVAWLL[Aib]TE-OH; N-terminus assumed), the pEC50 in experiment [1] (setting [3]) is 10.11; in experiment [2] (setting [3]), 9.51. Besides, in experiment [1] (Table 6), the “% Relative Potency Ratio” value is on record as 8.0.

For `CC[C@H](C)[C@H](NC(=O)[C@H](Cc1c[nH]c2ccccc12)NC(=O)[C@H](CCCNC(=N)N)NC(=O)[C@@H](NC(=O)[C@H](Cc1ccccc1)NC(=O)[C@H](CC(=O)O)NC(=O)[C@H](CCC(N)=O)NC(=O)[C@H](C)NC(=O)[C@H](CCCNC(=N)N)NC(=O)[C@H](CCCCNC(=O)COCCOCCNC(=O)COCCOCCNC(=O)CC[C@H](NC(=O)CCCCCCCCCCCCCCCCC(=O)O)C(=O)O)NC(=O)[C@H](CO)NC(=O)[C@H](CC(=O)O)NC(=O)[C@H](CC(C)C)NC(=O)[C@](C)(Cc1ccccc1)NC(=O)[C@H](CCCCN)NC(=O)[C@H](CO)NC(=O)[C@@H](NC(=O)[C@H](CC(=O)O)NC(=O)[C@H](CO)NC(=O)[C@@H](NC(=O)[C@H](Cc1ccccc1)NC(=O)[C@@H](NC(=O)CNC(=O)[C@H](CCC(N)=O)NC(=O)C(C)(C)NC(=O)[C@@H](N)Cc1c[nH]cn1)[C@@H](C)O)[C@@H](C)O)C(C)C)C(C)C)C(=O)N[C@@H](C)C(=O)N[C@@H](CCC(=O)O)C(=O)NC(C)(C)C(=O)NCC(=O)O` [Peptide 148] (H-H[Aib]QGTFTSDVSK[αMeF]LDSK([AEEA-AEEA-γGlu-C18 diacid])RAQDFVRWIAE[Aib]G-OH; N-terminus assumed), the pEC50 in experiment [1] (setting [3]) was 10.40; in experiment [2] (setting [3]), 9.25. Also, in experiment [1] (Table 6), the “% Relative Potency Ratio” value was found to be 27.9.

In the case of `CC[C@H](C)[C@H](NC(=O)[C@H](CO)NC(=O)[C@H](CCC(=O)O)NC(=O)[C@@H](NC(=O)[C@](C)(Cc1ccccc1)NC(=O)[C@H](CC(=O)O)NC(=O)[C@H](CCCCNC(=O)COCCOCCNC(=O)COCCOCCNC(=O)CC[C@H](NC(=O)CC[C@H](NC(=O)CCCCCCCCCCCCCCCCCCC(=O)O)C(=O)O)C(=O)O)NC(=O)[C@H](C)NC(=O)C(C)(C)NC(=O)[C@H](CCCNC(=N)N)NC(=O)[C@H](CO)NC(=O)[C@H](CC(=O)O)NC(=O)[C@H](CC(C)C)NC(=O)[C@](C)(Cc1ccccc1)NC(=O)[C@H](CCCCN)NC(=O)[C@H](CO)NC(=O)[C@@H](NC(=O)[C@H](CC(=O)O)NC(=O)[C@H](CO)NC(=O)[C@@H](NC(=O)[C@](C)(Cc1ccccc1)NC(=O)[C@H](CO)NC(=O)CNC(=O)[C@H](Cc1c[nH]cn1)NC(=O)C(C)(C)NC(=O)[C@@H](N)Cc1c[nH]cn1)[C@@H](C)O)C(C)C)C(C)C)C(=O)N[C@@H](C)C(=O)N[C@@H](CC(N)=O)C(=O)N[C@H](C(N)=O)[C@@H](C)O` [Peptide 249] (H-H[Aib]HGS[αMeF]TSDVSK[αMeF]LDSR[Aib]AK([AEEA-AEEA-γGlu-γGlu-C20 diacid])D[αMeF]VESIANT-NH2), the pEC50 is 9.25 in experiment [1] (setting [4]) and 9.26 in experiment [2] (setting [4]). Besides, in experiment [1] (Table 7), the “% Relative Potency Ratio” value was found to be 1.9.

As to `CC[C@H](C)[C@H](NC(=O)[C@H](Cc1c[nH]c2ccccc12)NC(=O)[C@H](CCC(=O)O)NC(=O)[C@@H](NC(=O)[C@H](Cc1ccccc1)NC(=O)[C@H](CC(=O)O)NC(=O)[C@H](CCCNC(=N)N)NC(=O)[C@H](C)NC(=O)[C@H](C)NC(=O)[C@H](CCCCNC(=O)COCCOCCNC(=O)COCCOCCNC(=O)CC[C@H](NC(=O)CCCCCCCCCCCCCCCCC(=O)O)C(=O)O)NC(=O)[C@H](CO)NC(=O)[C@H](CC(=O)O)NC(=O)[C@H](CC(C)C)NC(=O)[C@](C)(Cc1ccccc1)NC(=O)[C@H](CCCCN)NC(=O)[C@H](CO)NC(=O)[C@@H](NC(=O)[C@H](CC(=O)O)NC(=O)[C@H](CO)NC(=O)[C@@H](NC(=O)[C@](C)(Cc1ccccc1)NC(=O)[C@H](CO)NC(=O)CNC(=O)[C@H](Cc1c[nH]cn1)NC(=O)C(C)(C)NC(=O)[C@@H](N)Cc1c[nH]cn1)[C@@H](C)O)C(C)C)C(C)C)C(=O)N[C@@H](C)C(=O)N[C@@H](CC(N)=O)C(=O)N[C@H](C(N)=O)[C@@H](C)O` [Peptide 10] (H-H[Aib]HGS[αMeF]TSDVSK[αMeF]LDSK([AEEA-AEEA-γGlu-C18 diacid])AARDFVEWIANT-NH2; N-terminus assumed), the pEC50 was 9.18 in experiment [1] (setting [3]) and 9.42 in experiment [2] (setting [3]). In addition, in experiment [1] (Table 6), the “% Relative Potency Ratio” value is reported as 1.1.

One may read the pEC50 as the negative decadic logarithm of the EC50, by convention in mol/L.
